GI50 and TGI data for seven molecules are collected here from PubChem BioAssay (NCI).

Each structure is given as a SMILES string. Where “and” joins values, the source holds several entries; their conditions need not be identical. Equal values may be shown once.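 How tested: cells in 96-well plates exposed to compound for 48 hours at five concentrations. At the GI50, growth is halved. At the TGI there is no net growth.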

Test systems include A498 renal; ACHN renal; HL-60(TB) leukemia; MALME-3M melanoma; NCI-H522 lung; RXF 393 renal; SF-268 CNS; SF-539 CNS; SR leukemia; UACC-257 melanoma.
Test in all cases: DTP human tumour cell line panel, 48 h

By GI50 is commonly meant the concentration giving 50% growth inhibition. A word on the TGI: it is the concentration giving total growth inhibition. On to `C=C1C(=O)O[C@H]2[C@H]1CC/C(COC(=O)/C=C\C(=O)NCc1ccc(Cn3c(=O)sn(CCCC)c3=O)cc1)=C\CC[C@@]1(C)O[C@@H]21`, for which the GI50 with A498 renal is 1.18 µM; in the assay on ACHN renal, 0.299 µM; in the assay on HL-60(TB) leukemia it was 0.396 µM; with MALME-3M melanoma, 1.35 µM; in the assay with NCI-H522 lung it was 0.315 µM; in the assay on RXF 393 renal it was 0.547 µM. The GI50 with SF-268 CNS was 1.39 µM; in the assay with SF-539 CNS it was 1.18 µM; in the assay on SR leukemia it was 0.288 µM; in the assay with UACC-257 melanoma it was 1.38 µM. The TGI in the assay with A498 renal stood at 2.44 µM; in the assay on ACHN renal, 0.994 µM; in the assay with HL-60(TB) leukemia it was 1.77 µM; in the assay with MALME-3M melanoma, 2.71 µM; in the assay on NCI-H522 lung it was 1.27 µM; with RXF 393 renal it was 1.79 µM. In addition, the TGI in the assay with SF-268 CNS is 2.78 µM; in the assay with SF-539 CNS it was 2.42 µM; in the assay on SR leukemia, greater than 100 µM; in the assay with UACC-257 melanoma, 2.93 µM.

For `O=S(=O)(Nc1ccc(F)cc1F)c1ccc(-c2cnc(C3CC3)o2)cc1`, the GI50 with A498 renal is 0.223 µM; with ACHN renal it was 1.62 µM; with HL-60(TB) leukemia, 0.397 µM; in the assay with MALME-3M melanoma, 0.615 µM; in the assay on NCI-H522 lung, 0.347 µM; with RXF 393 renal it was 0.595 µM. Also, the GI50 was 4.82 µM with SF-268 CNS, 0.674 µM with SF-539 CNS, 0.406 µM in the assay with SR leukemia and 10.3 µM in the assay on UACC-257 melanoma. The TGI in the assay with A498 renal was 2.08 µM; in the assay with ACHN renal, 31.2 µM; in the assay on HL-60(TB) leukemia it was 6.39 µM; with MALME-3M melanoma, 34.2 µM; in the assay on NCI-H522 lung it was 16 µM; in the assay with RXF 393 renal, 7.05 µM. Also, the TGI in the assay with SF-268 CNS is greater than 70.4 µM; in the assay on SF-539 CNS, 5.71 µM; in the assay on SR leukemia, greater than 100 µM; with UACC-257 melanoma it was 51.8 µM.

For `O=C(c1ccc(/C=C/c2n[nH]c3ccccc23)cc1)N1CCNCC1`, the GI50 in the assay with A498 renal is 2 µM and 7.83 µM; in the assay on ACHN renal, > 10 µM and 4.05 µM; in the assay on HL-60(TB) leukemia, 1.94 µM and 4.15 µM; in the assay with MALME-3M melanoma, 1.52 µM and 1.16 µM; with NCI-H522 lung it was 1.72 µM and 11 µM; with RXF 393 renal it was 2.66 µM and 1.99 µM. Moreover, the GI50 is 8.61 µM and 4.34 µM in the assay on SF-268 CNS; 2.18 µM and 1.83 µM with SF-539 CNS; 1.85 µM and 0.407 µM with SR leukemia; 1.76 µM and 7.57 µM with UACC-257 melanoma. The TGI in the assay with A498 renal is 8.87 µM and 21.5 µM; in the assay on ACHN renal it was > 10 µM and 25.3 µM; in the assay on HL-60(TB) leukemia it was 4.45 µM and 22.3 µM; in the assay on MALME-3M melanoma it was 3.09 µM and 9.38 µM; in the assay with NCI-H522 lung it was 3.52 µM and 26.5 µM; with RXF 393 renal, > 10 µM and 6.94 µM. Besides, the TGI in the assay on SF-268 CNS is > 10 µM and 18.9 µM; in the assay on SF-539 CNS it was 6.74 µM and 9.92 µM; with SR leukemia, 4.23 µM and 10.3 µM; with UACC-257 melanoma, 3.3 µM and 21 µM.

`CC(C)C(=O)NS(=O)(=O)c1ccccc1`: the TGI in the assay with A498 renal, with ACHN renal, in the assay on HL-60(TB) leukemia, in the assay on MALME-3M melanoma, with NCI-H522 lung and in the assay on RXF 393 renal was greater than 100 µM in each case. The TGI in the assay with SF-268 CNS, in the assay with SF-539 CNS, with SR leukemia and in the assay with UACC-257 melanoma was greater than 100 µM in each case.

As to `CCC1CCc2c(c(=O)oc3c2cc(OC)c2cccc(OC)c23)C1` (configuration not stated), the TGI in the assay on A498 renal was greater than 100 µM; with ACHN renal, greater than 100 µM; with HL-60(TB) leukemia, 69.6 µM; in the assay on MALME-3M melanoma, greater than 100 µM; in the assay with NCI-H522 lung, greater than 100 µM; in the assay on RXF 393 renal, 89.9 µM. Also, the TGI with SF-268 CNS, in the assay with SF-539 CNS, in the assay with SR leukemia and with UACC-257 melanoma was greater than 100 µM each time.

`CCN(Cc1ccccc1C)c1ccc(CO)c(Cl)c1`: the GI50 with A498 renal was 0.0283 µM; with ACHN renal, 15.7 µM; in the assay on HL-60(TB) leukemia, 11.3 µM; in the assay with MALME-3M melanoma it was 15.6 µM; in the assay on NCI-H522 lung it was 13.4 µM; in the assay on RXF 393 renal, 6.3 µM. Also, the GI50 in the assay on SF-268 CNS was 16.1 µM; with SF-539 CNS it was 15 µM; with SR leukemia it was 9.29 µM; with UACC-257 melanoma it was 0.278 µM. In addition, the TGI was determined as 0.114 µM in the assay with A498 renal; 39.4 µM in the assay on ACHN renal; 34.4 µM in the assay with HL-60(TB) leukemia; 32 µM in the assay on MALME-3M melanoma; 28.8 µM with NCI-H522 lung; 23.8 µM with RXF 393 renal. Also, the TGI was 31.8 µM in the assay on SF-268 CNS, 29.5 µM in the assay with SF-539 CNS, 32.6 µM in the assay on SR leukemia and 1.67 µM in the assay with UACC-257 melanoma.

As to `CC(=O)Oc1ccccc1C(=O)Nc1ncc([N+](=O)[O-])s1`, the concentration for 50% growth inhibition (GI50) with A498 renal was 0.245 µM; with ACHN renal, 2.74 µM; with HL-60(TB) leukemia, 1.77 µM; in the assay with MALME-3M melanoma, 1.48 µM; in the assay on NCI-H522 lung it was 1.63 µM; in the assay with RXF 393 renal, 2.06 µM. For the same molecule, the GI50 was 3.35 µM with SF-268 CNS, 2.9 µM with SF-539 CNS, 2.32 µM with SR leukemia and 2.16 µM with UACC-257 melanoma. For the same molecule, the TGI is 11.3 µM and > 100 µM with ACHN renal; 4.24 µM with HL-60(TB) leukemia; 6.2 µM and 21.7 µM in the assay on NCI-H522 lung; 13.1 µM and 29.7 µM with RXF 393 renal; greater than 79.7 µM in the assay on SF-268 CNS; 20.6 µM and > 100 µM in the assay with SF-539 CNS. The molecule further had a TGI with SR leukemia of 7.99 µM.
